The source of these data is patent US20240067633A1, “KETOHEXOKINASE INHIBITOR AND USE THEREOF” (SICHUAN HAISCO PHARMACEUTICAL CO., LTD., priority 2020, published 2024).

pEC50, pIC50: −log10 of the molar value.

The target in data set [1] is hKHK-C (Homo sapiens (Human), UniProt P50053). The experiment in a line: Experiment of inhibitory activity against KHK in vitro (ADP-glo), hKHKc. The data set is classed as biochemical. The note with it: purified hKHK-C, 50 mM fructose, 0.2 mM ATP. The protocol:
(§1) With the involvement of ATP, fructokinase phosphorylates fructose to produce fructose-1-phosphate and ADP. In this experiment, the effect of the compound on the activity of fructokinase was determined by measuring the amount of ADP produced in the process. Test compound stocks were prepared in DMSO. Before use, the stocks were 3-fold serially diluted with assay buffers (25 mM HEPES, 300 mM KCl, 10 mM MgCl2, 10 mM CaCl2), pH 7.0) to 5-fold the final concentration tested, and the DMSO content was adjusted to 1%. In a 384-well plate, the test compound was added to achieve a final concentration of 7.6 nM to 100 μM (assay buffers containing 1% DMSO were added to background and control wells). 5 ng/μL purified hKHK-C (assay buffers were added to background wells), 50 mM fructose and 0.2 mM ATP were added to reach a total volume of 10 μL and reacted at room temperature for 30 min. After the reaction was completed, 10 μL of ADP-glo (promega) was added and mixed uniformly, and the plate was incubated at room temperature for 40 min. Then the ADP-glo was added again, mixed uniformly and reacted for 40 min. The spontaneous luminescence intensity was measured using an Envision microplate reader. The inhibition rate of the compound against […] was calculated using the following formula,
(§2) [formula] • wherein • RLUZPE=luminescence intensity of control well • RLUblank=luminescence intensity of background well • RLUcpd=luminescence intensity of test compound well
(§3) A curve of inhibition rate (y-axis) versus compound concentration (x-axis) was fitted by logarithmic (inhibitor) and normalized response (variable slope) in GraphPad Prism, and EC50 was calculated.

Data set [2] concerns the target hKHKa (Homo sapiens (Human), UniProt P50053). The experiment in a line: Experiment of inhibitory activity against KHK in vitro (ADP-glo), hKHKa. The data set is classed as biochemical. As for the experimental part: [The source words this procedure for another variant and reports this variant under the same test.] as §1, §2, §3
The target in data set [3] is mKHKc (Mus musculus (Mouse), UniProt P97328). The experiment in a line: Experiment of inhibitory activity against KHK in vitro (ADP-glo), mKHKc. The data set is classed as biochemical. The protocol:
[The source words this procedure for another species and reports this species under the same test.] as §1, with “5 ng/μL purified hKHK-C (assay buffers were added to background wells), 50 mM fructose and 0.2 mM ATP were added to reach a total volume of 10 μL and reacted at room temperature for 30 min. After the reaction was completed, 10 μL of ADP-glo (promega) was added and mixed uniformly, and the plate was incubated at room temperature for 40 min. Then the ADP-glo was added again, mixed uniformly and reacted for 40 min.” left out
as §2, §3

For data set [4], the target named is rKHKc (Rattus norvegicus (Rat), UniProt Q02974). The data set can be described thus: Experiment of inhibitory activity against KHK in vitro (ADP-glo), rKHKc. The data set is classed as biochemical. As for the experimental part: [The source words this procedure for another species and reports this species under the same test.] as §1, with “5 ng/μL purified hKHK-C (assay buffers were added to background wells), 50 mM fructose and 0.2 mM ATP were added to reach a total volume of 10 μL and reacted at room temperature for 30 min. After the reaction was completed, 10 μL of ADP-glo (promega) was added and mixed uniformly, and the plate was incubated at room temperature for 40 min. Then the ADP-glo was added again, mixed uniformly and reacted for 40 min.” left out
as §2, §3

Data set [5] is described as follows: Pharmacokinetic experiment in rats. The data set is classed as in vivo, SD rats. The protocol: 2.1 Experimental animals: Male SD rats, about 220 g, 6-8 weeks old, 6 rats/compound, purchased from Hunan SJA Laboratory Animal Co., Ltd.
2.2 Experimental design: On the day of the experiment, 6 SD rats were randomly grouped according to their body weight. The animals were fasted with water available for 12 to 14 h one day before the administration, and were fed 4 h after the administration.
(§4) Vehicle for intravenous administration: 5% DMA+5% Solutol+90% Saline; Vehicle for intragastric administration: 0.5% MC
Before and after the administration, 0.15 mL of blood was taken from the orbit of the animals under isoflurane anaesthesia and placed in an EDTAK2 centrifuge tube. The blood was centrifuged at 5000 rpm and 4° C. for 10 min to collect plasma. Blood sampling time points for the intravenous administration group: 0, 5 min, 15 min, 30 min, 1 h, 2 h, 4 h, 6 h, 8 h, and 24 h; and blood sampling time points for the intragastric administration group: 0, 5 min, 15 min, 30 min, 1 h, 2 h, 4 h, 6 h, 8 h, and 24 h. Before analysis and detection, all samples were stored at −80° C.

Data set [6] is described as follows: Pharmacokinetic experiment in mice. The data set is classed as in vivo, ICR mice. The protocol:
3.1 Experimental animals: male ICR mice, about 22 g, 6-8 weeks old, 18 mice/compound, purchased from Hunan SJA Laboratory Animal Co., Ltd.
3.2 Experimental design: On the day of the experiment, 18 ICR mice were randomly grouped according to their body weight. The animals were fasted with water available for 12 to 14 h one day before the administration, and were fed 4 h after the administration.
as §4
Before and after the administration, 0.08 mL of blood was taken from the orbit of the animals under isoflurane anaesthesia and placed in an EDTAK2 centrifuge tube. The blood was centrifuged at 5000 rpm and 4° C. for 10 min to collect plasma. Blood sampling time points for the intravenous administration group: 0, 5 min, 15 min, 30 min, 1 h, 2 h, 4 h, 6 h, 8 h, and 24 h; and blood sampling time points for the intragastric administration group: 0, 5 min, 15 min, 30 min, 1 h, 2 h, 4 h, 6 h, 8 h, and 24 h. Before analysis and detection, all samples were stored at −80° C.

Data set [7] has as its target CYP2D6 (Homo sapiens (Human), UniProt P10635). The experiment in a line: CYP450 enzyme inhibition test, mixed human liver microsomes. The data set is classed as in vitro ADME. The note with it: 0.05-50 μM.
In data set [8] the target is CYP3A4 (Homo sapiens (Human), UniProt P08684). Described as above. The data set is classed as in vitro ADME. The note with it: 0.05-50 μM.
CYP3A4, sequence (P08684 whole entry): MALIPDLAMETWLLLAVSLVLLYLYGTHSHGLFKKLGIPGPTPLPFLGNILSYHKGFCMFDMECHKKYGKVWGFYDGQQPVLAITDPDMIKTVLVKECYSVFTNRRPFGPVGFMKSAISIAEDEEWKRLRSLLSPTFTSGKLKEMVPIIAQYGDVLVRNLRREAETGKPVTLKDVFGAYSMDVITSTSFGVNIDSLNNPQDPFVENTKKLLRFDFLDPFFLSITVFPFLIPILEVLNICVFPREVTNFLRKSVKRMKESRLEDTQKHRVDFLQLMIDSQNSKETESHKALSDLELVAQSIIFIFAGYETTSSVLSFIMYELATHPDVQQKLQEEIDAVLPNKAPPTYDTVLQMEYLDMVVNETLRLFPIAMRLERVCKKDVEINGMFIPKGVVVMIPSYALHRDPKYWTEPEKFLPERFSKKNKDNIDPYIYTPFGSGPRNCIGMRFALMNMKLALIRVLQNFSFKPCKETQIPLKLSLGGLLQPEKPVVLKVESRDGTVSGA

hKHKa, sequence (P50053 other isoform, or with tags, fused parts or gaps): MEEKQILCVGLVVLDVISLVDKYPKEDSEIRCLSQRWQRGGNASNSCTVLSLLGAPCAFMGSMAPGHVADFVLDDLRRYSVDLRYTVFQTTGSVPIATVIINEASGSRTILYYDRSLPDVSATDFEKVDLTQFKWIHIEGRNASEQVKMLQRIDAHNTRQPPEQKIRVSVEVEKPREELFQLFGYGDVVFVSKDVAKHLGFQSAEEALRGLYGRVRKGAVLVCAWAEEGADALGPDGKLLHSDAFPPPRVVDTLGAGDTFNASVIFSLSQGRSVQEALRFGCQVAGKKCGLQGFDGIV
hKHK-C, sequence (P50053 whole entry): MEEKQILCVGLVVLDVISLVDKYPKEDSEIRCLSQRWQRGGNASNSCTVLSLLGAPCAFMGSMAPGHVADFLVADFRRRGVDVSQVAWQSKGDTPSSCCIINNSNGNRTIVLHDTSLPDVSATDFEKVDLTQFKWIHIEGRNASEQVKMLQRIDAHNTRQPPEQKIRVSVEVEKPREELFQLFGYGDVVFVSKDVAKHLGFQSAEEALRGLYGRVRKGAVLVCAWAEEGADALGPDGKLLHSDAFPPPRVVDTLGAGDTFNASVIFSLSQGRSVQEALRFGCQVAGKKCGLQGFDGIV
mKHKc, sequence (P97328 whole entry): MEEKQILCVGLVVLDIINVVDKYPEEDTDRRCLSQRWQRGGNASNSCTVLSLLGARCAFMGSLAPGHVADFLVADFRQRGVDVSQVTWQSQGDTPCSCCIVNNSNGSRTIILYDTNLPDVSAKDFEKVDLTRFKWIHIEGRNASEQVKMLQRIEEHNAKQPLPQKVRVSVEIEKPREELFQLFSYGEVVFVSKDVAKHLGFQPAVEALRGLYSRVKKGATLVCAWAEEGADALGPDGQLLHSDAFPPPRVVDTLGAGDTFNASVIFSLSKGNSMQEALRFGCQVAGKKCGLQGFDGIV
CYP2D6, sequence (P10635 whole entry): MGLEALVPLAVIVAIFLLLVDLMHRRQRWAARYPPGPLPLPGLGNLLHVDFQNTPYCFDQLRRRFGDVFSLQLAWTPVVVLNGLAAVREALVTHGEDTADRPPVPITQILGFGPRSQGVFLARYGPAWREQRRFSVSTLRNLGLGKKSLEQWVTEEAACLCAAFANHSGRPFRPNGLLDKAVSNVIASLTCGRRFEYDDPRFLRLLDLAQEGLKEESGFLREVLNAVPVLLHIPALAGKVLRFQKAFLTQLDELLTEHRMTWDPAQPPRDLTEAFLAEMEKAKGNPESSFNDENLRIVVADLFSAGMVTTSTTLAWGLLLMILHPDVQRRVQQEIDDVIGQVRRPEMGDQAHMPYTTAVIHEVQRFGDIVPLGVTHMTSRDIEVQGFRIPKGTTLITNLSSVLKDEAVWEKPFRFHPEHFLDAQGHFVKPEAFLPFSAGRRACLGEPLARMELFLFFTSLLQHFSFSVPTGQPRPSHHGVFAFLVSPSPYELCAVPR
rKHKc, sequence (Q02974 whole entry): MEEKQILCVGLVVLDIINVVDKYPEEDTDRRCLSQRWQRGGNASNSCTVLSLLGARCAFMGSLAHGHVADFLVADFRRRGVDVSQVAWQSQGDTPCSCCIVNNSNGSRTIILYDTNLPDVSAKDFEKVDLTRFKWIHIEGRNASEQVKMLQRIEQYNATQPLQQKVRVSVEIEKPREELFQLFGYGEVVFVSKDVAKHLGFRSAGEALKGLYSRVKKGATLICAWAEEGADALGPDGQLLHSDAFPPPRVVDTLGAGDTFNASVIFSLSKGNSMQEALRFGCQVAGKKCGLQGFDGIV

In data set [1], `[2H]C([2H])([2H])[C@H]1CCN1c1nc(N2CC(CC(=O)O)C2)c2c(c1C#N)C(F)(F)CC2` [Compound 18, (S)-2-(1-(4-cyano-5,5-difluoro-3-(2-(methyl-d3)azetidin-1-yl)-6,7-dihydro-5H-cyclopenta[c]pyridin-1-yl)azetidin-3-yl)acetic acid] gave a pEC50 of 7.28.

As for `[2H]C([2H])([2H])[C@H]1CCN1c1nc(N2C[C@H]3C[C@@H](C2)C3CC(=O)O)c2c(n1)C(F)(F)CC2` (stereo partly drawn) [Compound 16, 2-((1R,5S,6R)-3-(7,7-difluoro-2-((S)-2-(methyl-d3)azetidin-1-yl)-6,7-dihydro-5H-cyclopenta[d]pyrimidin-4-yl)-3-azabicyclo[3.1.1]heptan-6-yl)acetic acid], the pEC50 in data set [1] is 7.42.

For `C[C@H]1CCN1c1nc(N2C[C@H]3C[C@@H](C2)[C@@H]3CC(=O)O)c2c(n1)C(F)(F)CCC2` (single isomer, unassigned; isomer 2) [Isomer 2 of compound 3], the negative logarithm of the EC50 (pEC50) in data set [1] is 7.43; in data set [2] it was 7.29; in data set [3] it was 6.87; in data set [4] it was 6.84.

For `C[C@H]1CCN1c1nc(N2C[C@H]3C[C@@H](C2)[C@@H]3CC(=O)O)c2c(n1)C(F)(F)CC2` (single isomer, unassigned; isomer 2) [Isomer 2 of compound 4], the pEC50 in data set [1] was 7.71.

For `O=C(O)C[C@H]1[C@@H]2C[C@H]1CN(c1nc(N3CC[C@H]3C(F)F)nc3c1CCC3(F)F)C2` (single isomer, unassigned; isomer 2) [Isomer 2 of compound 19], in data set [1], the negative-log EC50 (pEC50) was 7.22.

On to `C[C@H]1CCN1c1nc(N2CC(CC(=O)O)C2)c2c(c1C#N)C(F)(F)CC2` [Compound 7, (S)-2-(1-(4-cyano-5,5-difluoro-3-(2-methylazetidin-1-yl)-6,7-dihydro-5H-cyclopenta[c]pyridin-1-yl)azetidin-3-yl)acetic acid], for which the pEC50 was 7.44 in data set [1] and 7.45 in data set [2].

With “2-((1R,5S,6S)-3-(7,7-difluoro-2-((S)-2-(trifluoromethyl)azetidin-1-yl)-6,7-dihydro-5H-cyclopenta[d]pyrimidin-4-yl)-3-azabicyclo[3.1.1]heptan-6-yl)acetic acid [Isomer 2 of compound 20]”, in data set [1], the pEC50 was 7.30. Moreover, the F in data set [5] (i.g. 5 mg/kg) came out at 111%; in data set [6] (i.g. 3 mg/kg) it was 87.2%. For the same molecule, the AUC0-t in data set [5] (plasma, i.g. 5 mg/kg) stood at 64058 ng·h/mL; in data set [5] (plasma, i.v. 1 mg/kg) it was 11592 ng·h/mL; in data set [6] (plasma, i.g. 3 mg/kg), 4807 ng·h/mL; in data set [6] (plasma, i.v. 1 mg/kg), 1838 ng·h/mL. For the same molecule, the CL is 1.35 mL/min/kg in data set [5] (plasma, i.v. 1 mg/kg) and 8.84 mL/min/kg in data set [6] (plasma, i.v. 1 mg/kg). Also, the volume of distribution (Vdss) in data set [5] (plasma, i.v. 1 mg/kg) came to 0.568 L/kg; in data set [6] (plasma, i.v. 1 mg/kg), 0.977 L/kg. The negative-log IC50 (pIC50) in data set [7] and in data set [8] was below 4.30 each time.

For the molecule `C[C@H]1CCN1c1nc(N2CCC(CC(=O)O)C2)c2c(c1C#N)C(F)(F)CC2` (single isomer, unassigned) [Isomer 1 of compound 8], the negative logarithm of the EC50 (pEC50) was 7.23 in data set [1] and 7.22 in data set [2].
